In patent publication US9199959B2, “HIV replication inhibitor” (Shionogi & Co., Ltd., priority 2011, dated 2015):

Experiments:
HIV (HTLV-III B strain) = assay: HIV replication inhibition assay (MTT, MT-4 cells); assay type: cell-based; settings: Human immunodeficiency virus 1, MT4, 96 h, four days culture, concentration at which cell cytotoxicity by virus is inhibited 50%
Method: HIV (HTLV-III B strain) persistent infected human T cell strain Molt-4 clone 8 was cultured in 10% Fetal Bovine Serum-containing RPMI-1640 medium and the supernatant was filtrated, then the virus titer was measured and the solution was stored at −80° C. Each anti-human immunodeficiency virus active substance was diluted with the above cultured medium to the designated concentration, which was dispensed into 96 well micro plate by 50 μL. Next, a MT-4 cell suspended liquid was dispensed by 100 μL (2.5×10^4 cells), then the above HIV-containing supernatant diluted with the above cultured medium was added thereto by 50 μL (60 pfu (plaque forming unit)).
The obtained mixture was cultured at 37° C. in CO2 incubator for four days, then 3-(4,5-dimehylthiazole-2-yl)-2,5-diphenyltetrazolynium bromide (MTT) 5 mg/mL in PBS was added to each well by 30 μL, followed by 1 hr-cultivation. In this step, as formazan was precipitated by reduction of MTT in living cells, the cell supernatant was removed from all well by 150 μL, then a 150 μL of solution (10% Triton X-100 and […]) was added thereto, followed by shaking with a plate mixer, to elute formazan. The formazan was measured with a microreader at OD: 560 nm and 690 nm (wavelength) and the result was compared with the reference. EC50 means the compound concentration at which cell cytotoxicity by virus is inhibited 50%.

CYP2C19 = target: T1, CYP2C19 (Homo sapiens, UniProt P33261); assay: CYP inhibition assay, mephenytoin 4'-hydroxylation; assay type: in vitro ADME; settings: pooled human liver microsomes, probe S-mephenytoin (4'-hydroxylation), 50 μmol/L, pooled human hepatic microsome
T1 construct: enzyme, pooled human hepatic microsome 0.2 mg protein/mL; from tissue; host or cells: pooled human liver microsomes
T1 sequence (P33261 whole entry): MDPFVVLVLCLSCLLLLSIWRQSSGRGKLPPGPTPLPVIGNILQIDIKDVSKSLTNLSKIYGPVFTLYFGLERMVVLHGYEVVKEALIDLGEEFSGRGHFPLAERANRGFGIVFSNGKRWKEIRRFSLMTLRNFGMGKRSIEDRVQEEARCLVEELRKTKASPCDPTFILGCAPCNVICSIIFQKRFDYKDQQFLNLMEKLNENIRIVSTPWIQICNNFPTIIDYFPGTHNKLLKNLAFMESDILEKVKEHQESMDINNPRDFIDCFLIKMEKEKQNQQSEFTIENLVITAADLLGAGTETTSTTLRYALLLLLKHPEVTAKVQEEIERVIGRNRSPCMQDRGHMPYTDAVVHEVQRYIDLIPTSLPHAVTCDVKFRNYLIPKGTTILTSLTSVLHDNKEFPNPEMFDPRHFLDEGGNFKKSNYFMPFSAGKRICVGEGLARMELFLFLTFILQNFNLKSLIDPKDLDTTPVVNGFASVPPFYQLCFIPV
Method: Using commercially available pooled human hepatic microsome, and employing, as markers, 7-ethoxyresorufin O-deethylation (CYP1A2), tolbutamide methyl-hydroxylation (CYP2C9), mephenytoin 4′-hydroxylation (CYP2C19), dextromethorphan O-demethylation (CYP2D6), and terfenedine hydroxylation (CYP3A4) as typical substrate metabolism reactions of human main five CYP enzyme forms (CYP1A2, 2C9, 2C19, 2D6, 3A4), an inhibitory degree of each metabolite production amount by a test compound was assessed.
The reaction conditions were as follows: substrate, 0.5 μmol/L ethoxyresorufin (CYP1A2), 100 μmol/L tolbutamide (CYP2C9), 50 μmol/L S-mephenytoin (CYP2C19), 5 μmol/L dextromethorphan (CYP2D6), 1 μmol/L terfenedine (CYP3A4); reaction time, 15 minutes; reaction temperature, 37° C.; enzyme, pooled human hepatic microsome 0.2 mg protein/mL; test drug concentration, 1, 5, 10, 20 μmol/L (four points).
Each five kinds of substrates, human hepatic microsome, and a test drug in 50 mmol/L Hepes buffer as a reaction solution was added to a 96-well plate as the composition as described above, NADPH, as a cofactor was added to initiate metabolism reactions as markers and, after the incubation at 37° C. for 15 minutes, a methanol/acetonitrile=1/1 (v/v) solution was added to stop the reaction. After the centrifugation at 3000 rpm for 15 minutes, resorufin (CYP1A2 metabolite) in the supernatant was quantified by a fluorescent multilabel counter and tolbutamide hydroxide (CYP2C9 metabolite), mephenytoin 4′ hydroxide (CYP2C19 metabolite), dextrorphan (CYP2D6 metabolite), and terfenadine alcohol (CYP3A4 metabolite) were quantified by LC/MS/MS.
A reaction system containing only DMSO which is a solvent for dissolving a drug was adopted as a control (100%), and the remaining activity (%) was calculated, then IC50 was calculated by reverse presumption with a logistic model using a concentration and an inhibition rate.

Q: How did the EC50 (HIV (HTLV-III B strain)) turn out when `CC(=O)Nc1c(C)c(C(OC(C)(C)C)C(=O)O)c(-c2ccc(C)c(C)c2)c(C)c1-c1ccc(C)c(C)c1` (centres unmarked) [Compound I-6] was run?
A: 7.8 nM

Q: What about the IC50 at 15 min (CYP2C19) of the same compound?
A: ≥ 20000 nM
